One assay deals with Proteus vulgaris. As to the kind of experiment: Antimicrobial activity against Proteus vulgaris. Format: functional.
For another assay, the system named is Proteus mirabilis. As to the kind of experiment: Antimicrobial activity against Proteus mirabilis. Format: functional.
In the next assay the test system is Pseudomonas aeruginosa. As to the kind of experiment: Antimicrobial activity against Pseudomonas aeruginosa. In kind it is functional.
The next assay concerns Salmonella typhi. Description: Antimicrobial activity against Salmonella typhi. In kind it is functional, Salmonella enterica subsp. enterica serovar Typhi. As to conditions: Salmonella enterica.
For assay [1], the system named is Staphylococcus aureus. Description: Antimicrobial activity against Staphylococcus aureus. Format: functional.
The test system of assay [2] is Staphylococcus aureus.

In brackets after ≈: the same amount, converted by molar mass. Activity calls are given as the source filed them.

This note sets out measurements from ChEMBL document CHEMBL1155851, “Synthesis of some novel imidazole-based dicationic carbazolophanes as potential antibacterials” (2008).

What is called MIC is the smallest concentration in the dilution series that meets the test's criterion for growth inhibition. Take `CCn1c2ccc3cc2c2cc(ccc21)C(=O)c1ccc(cc1)Cn1cc[n+](c1)Cc1ccc(cc1)C(=O)c1ccc2c(c1)c1cc(ccc1n2CC)C(=O)c1ccc(cc1)C[n+]1ccn(c1)Cc1ccc(cc1)C3=O.[Br-].[Br-]`: the MIC turned out to be 40 mg/L against Proteus vulgaris; 35 mg/L in the assay with Proteus mirabilis; 55 mg/L against Pseudomonas aeruginosa; 25 mg/L with Salmonella typhi; 25 mg/L in the assay with Staphylococcus aureus [1].

Take `CN(C)[C@@H]1C(O)=C(C(N)=O)C(=O)[C@@]2(O)C(O)=C3C(=O)c4c(O)cccc4[C@@](C)(O)[C@H]3C[C@@H]12` [TETRACYCLINE]: the MIC with Proteus vulgaris was found to be 35 mg/L (≈ 78.8 µM); against Proteus mirabilis it was 20 mg/L (≈ 45 µM); in the assay with Pseudomonas aeruginosa, 35 mg/L (≈ 78.8 µM); in the assay with Salmonella typhi, 15 mg/L (≈ 33.8 µM); against Staphylococcus aureus [1], 20 mg/L (≈ 45 µM).

As to `CCn1c2ccc3cc2c2cc(ccc21)C(=O)c1ccc(cc1)Cn1c[n+](c2ccccc21)Cc1cccc(n1)C[n+]1cn(c2ccccc21)Cc1ccc(cc1)C3=O.[Br-].[Br-]`, the MIC in the assay with Proteus vulgaris is 15 mg/L; against Proteus mirabilis, 10 mg/L; against Pseudomonas aeruginosa, 20 mg/L; in the assay with Salmonella typhi, 15 mg/L; against Staphylococcus aureus [1], 8 mg/L.

As for `CCn1c2ccc3cc2c2cc(ccc21)C(=O)c1ccc(cc1)Cn1cc[n+](c1)Cc1cccc(n1)C[n+]1ccn(c1)Cc1ccc(cc1)C3=O.[Br-].[Br-]`, the MIC against Proteus vulgaris was found to be 25 mg/L; against Proteus mirabilis, 20 mg/L; in the assay with Pseudomonas aeruginosa it was 30 mg/L; against Salmonella typhi, 15 mg/L; against Staphylococcus aureus [1], 12 mg/L.

Consider `CCn1c2ccc3cc2c2cc(ccc21)C(=O)c1ccc(cc1)Cn1c[n+](c2ccccc21)Cc1ccc(cc1)-c1cccc(c1C(=O)O)-c1ccc(cc1)C[n+]1cn(c2ccccc21)Cc1ccc(cc1)C3=O.[Br-].[Br-]`, for which the MIC against Proteus vulgaris amounted to 60 mg/L; against Proteus mirabilis it was 55 mg/L; in the assay on Pseudomonas aeruginosa, 70 mg/L; against Salmonella typhi, 50 mg/L. In the assay with Staphylococcus aureus [2], the MIC result was “inactive”.

`CCn1c2ccc3cc2c2cc(ccc21)C(=O)c1ccc(cc1)Cn1cc[n+](c1)Cc1ccc(cc1)-c1cccc(c1)-c1ccc(cc1)C[n+]1ccn(c1)Cc1ccc(cc1)C3=O.[Br-].[Br-]`: the MIC in the assay on Proteus vulgaris amounted to 70 mg/L; with Proteus mirabilis it was 75 mg/L; against Pseudomonas aeruginosa, 75 mg/L; against Salmonella typhi, 55 mg/L; in the assay on Staphylococcus aureus [1], 75 mg/L.

Consider `CCn1c2ccc3cc2c2cc(ccc21)C(=O)c1ccc(cc1)Cn1cc[n+](c1)Cc1ccc(cc1)-c1cccc(c1C(=O)O)-c1ccc(cc1)C[n+]1ccn(c1)Cc1ccc(cc1)C3=O.[Br-].[Br-]`, for which the MIC in the assay with Proteus vulgaris was determined as 65 mg/L; with Proteus mirabilis, 50 mg/L; with Pseudomonas aeruginosa, 80 mg/L; against Salmonella typhi, 35 mg/L; with Staphylococcus aureus [1] it was 35 mg/L.

Turning to `CCn1c2ccc3cc2c2cc(ccc21)C(=O)c1ccc(cc1)Cn1c[n+](c2ccccc21)Cc1ccc(cc1)-c1cccc(c1)-c1ccc(cc1)C[n+]1cn(c2ccccc21)Cc1ccc(cc1)C3=O.[Br-].[Br-]`, the MIC amounted to 50 mg/L with Proteus vulgaris; 50 mg/L in the assay on Proteus mirabilis; 65 mg/L with Pseudomonas aeruginosa; 45 mg/L against Salmonella typhi; 45 mg/L in the assay on Staphylococcus aureus [1].

For the compound `CCn1c2ccc3cc2c2cc(ccc21)C(=O)c1ccc(cc1)Cn1c[n+](c2ccccc21)Cc1cc([N+](=O)[O-])cc(c1O)C[n+]1cn(c2ccccc21)Cc1ccc(cc1)C3=O.[Br-].[Br-]`, the MIC was found to be 35 mg/L with Proteus vulgaris; 30 mg/L against Proteus mirabilis; 30 mg/L with Pseudomonas aeruginosa; 15 mg/L against Salmonella typhi; 20 mg/L with Staphylococcus aureus [1].

For `CCn1c2ccc3cc2c2cc(ccc21)C(=O)c1ccc(cc1)Cn1c[n+](c2ccccc21)Cc1ccc(cc1)C(=O)c1ccc2c(c1)c1cc(ccc1n2CC)C(=O)c1ccc(cc1)C[n+]1cn(c2ccccc21)Cc1ccc(cc1)C3=O.[Br-].[Br-]`, the MIC against Proteus vulgaris turned out to be 30 mg/L; with Proteus mirabilis, 30 mg/L; with Pseudomonas aeruginosa it was 35 mg/L; in the assay with Salmonella typhi it was 25 mg/L; in the assay on Staphylococcus aureus [1], 26 mg/L.

Turning to `CCn1c2ccc3cc2c2cc(ccc21)C(=O)c1ccc(cc1)Cn1c[n+](c2ccccc21)Cc1cc(OC)c(cc1OC)C[n+]1cn(c2ccccc21)Cc1ccc(cc1)C3=O.[Br-].[Br-]`, the minimal inhibitory concentration (MIC) came out at 45 mg/L against Proteus vulgaris, 55 mg/L against Proteus mirabilis, 70 mg/L against Pseudomonas aeruginosa and 40 mg/L against Salmonella typhi.

Consider `CCn1c2ccc3cc2c2cc(ccc21)C(=O)c1ccc(cc1)Cn1cc[n+](c1)Cc1cc([N+](=O)[O-])cc(c1O)C[n+]1ccn(c1)Cc1ccc(cc1)C3=O.[Br-].[Br-]`, for which the MIC against Proteus vulgaris was found to be 30 mg/L; with Proteus mirabilis it was 20 mg/L; against Pseudomonas aeruginosa, 35 mg/L; against Salmonella typhi it was 20 mg/L; in the assay on Staphylococcus aureus [1], 20 mg/L.
